Test results taken from patent US10633338B2, “Binding Function 3 (BF3) site compounds as therapeutics and methods for their use” (THE UNIVERSITY OF BRITISH COLUMBIA, priority 2014, dated 2020).
pIC50: −log10 of the molar value. Read-outs that look alike come from different tables or passages of the source.

Assays:
androgen receptor (AR) = biological target: T1, androgen receptor (AR) (Homo sapiens, UniProt P10275, T878A); test: eGFP cellular AR transcription assay; type: cell-based
T1 construct: stably transfected eGFP-expressing LNCaP human prostate cancer cells (LN-ARR2PB-eGFP) containing an androgen responsive probasin-derived promoter; endogenous in cells; host or cells: LNCaP (LN-ARR2PB-eGFP)
T1 sequence (P10275 1-920 T878A): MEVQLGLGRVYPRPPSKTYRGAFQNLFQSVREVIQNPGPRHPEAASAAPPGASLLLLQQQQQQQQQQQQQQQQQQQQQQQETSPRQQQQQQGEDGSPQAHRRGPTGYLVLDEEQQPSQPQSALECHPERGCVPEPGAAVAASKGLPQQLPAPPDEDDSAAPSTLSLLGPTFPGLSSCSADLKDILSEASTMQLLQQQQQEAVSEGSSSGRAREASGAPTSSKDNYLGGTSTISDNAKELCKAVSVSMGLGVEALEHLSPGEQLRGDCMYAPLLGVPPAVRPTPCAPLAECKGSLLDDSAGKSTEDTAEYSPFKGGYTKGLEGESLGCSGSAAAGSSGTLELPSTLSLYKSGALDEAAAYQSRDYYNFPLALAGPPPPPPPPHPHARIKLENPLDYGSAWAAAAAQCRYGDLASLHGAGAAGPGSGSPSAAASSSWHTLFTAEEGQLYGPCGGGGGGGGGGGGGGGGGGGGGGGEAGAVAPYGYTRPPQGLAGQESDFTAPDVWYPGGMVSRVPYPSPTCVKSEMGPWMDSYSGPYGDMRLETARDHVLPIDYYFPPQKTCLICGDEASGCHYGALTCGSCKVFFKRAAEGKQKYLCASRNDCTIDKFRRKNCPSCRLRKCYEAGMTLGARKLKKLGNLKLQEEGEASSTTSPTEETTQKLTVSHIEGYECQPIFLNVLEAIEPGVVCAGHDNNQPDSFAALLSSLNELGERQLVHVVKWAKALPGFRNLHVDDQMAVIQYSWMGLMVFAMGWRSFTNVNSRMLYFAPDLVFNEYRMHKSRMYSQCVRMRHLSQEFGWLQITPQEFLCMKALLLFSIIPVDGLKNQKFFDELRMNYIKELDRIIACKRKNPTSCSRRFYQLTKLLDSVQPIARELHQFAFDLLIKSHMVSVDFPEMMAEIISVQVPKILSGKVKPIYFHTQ
Experimental: After 5 days, the cells were plated into a 96-well plate (35,000 cells/well) with 0.1 nM of the synthetic androgen R1881 and increasing concentrations (0-100 μM) of compound.
After 5 days, the cells were plated into a 96-well plate (35,000 cells/well) with 0.1 nM R1881 and increasing concentrations (0-100 μM) of compound.
In this assay, the expression of eGFP is under the control of an androgen responsive probasin-derived promoter and can quantify AR transcriptional activity.

PSA = test: Prostate Surface Antigen (PSA) assay, PSA excreted into the media; type: cell-based, human; conditions: same plates as eGFP assay
Experimental: The evaluation of PSA excreted into the media was performed in parallel to the eGFP assay using the same plates (see above description). After the cells were incubated for 3 days 150 μl of the media was taken from each well, and added to 150 μl of PBS.

[1] = LN-ARR2PBeGFP LNCaP cells, 0.1 nM R1881, 3 days incubation
[2] = PSA excreted into media, 3 days incubation
[3] = LN-ARR2PB-eGFP LNCaP cells, 0.1 nM R1881, 3 days, 0-100 μM compound, read-out: IC50 (eGFP)
[4] = Homo sapiens, 72 h, media after 3 days, read-out: IC50 (PSA)
[5] = LN-ARR2PBeGFP LNCaP cells, 0.1 nM R1881, 3 days incubation, read-out: eGFP IC50
[6] = Homo sapiens, 72 h, PSA excreted into media, 3 days incubation, read-out: PSA IC50
[7] = PSA excreted into media, 3 days incubation, read-out: PSA IC50
[8] = LN-ARR2PB-eGFP LNCaP cells, 0.1 nM R1881, 3 days, 0-100 μM compound

Row | Compound | pIC50 (androgen receptor (AR); [5]) | pIC50 (PSA; [6]) | other results
1 | Fc1cc2[nH]cc(-c3ccc4c(Cl)cccc4n3)c2cc1F [Compound 13707] | – | – | eGFP IC50 (androgen receptor (AR); [1]): Inactive; PSA IC50 (PSA; [2]): Inactive
2 | COc1cccc2c(-c3cc(C)c4ccccc4n3)c[nH]c12 [13 554] | – | – | pIC50 (androgen receptor (AR); [3]): 6.22; pIC50 (PSA; [4]): 6.17
3 | Fc1ccc(-c2c[nH]c3ncccc23)cc1 [13 740] | – | – | pIC50 (androgen receptor (AR); [3]): 6.92; pIC50 (PSA; [4]): 6.92
4 | Cc1cccc2c(-c3ccc4ocnc4c3)c[nH]c12 [13 759] | – | – | pIC50 (androgen receptor (AR); [3]): 6.52; pIC50 (PSA; [4]): 6.57
5 | Fc1cc2c(-c3ccc4c(F)cccc4n3)c[nH]c2c(F)c1F [Compound 13751] | – | – | eGFP IC50 (androgen receptor (AR); [1]): Inactive; PSA IC50 (PSA; [2]): Inactive
6 | CC1(C)c2ccccc2NC1c1c[nH]c2ccccc12 (stereo not drawn) [Compound 13506] | 6.74 | 6.22 | –
7 | Cc1cccc2c(C3Nc4ccccc4C34CCCCC4)c[nH]c12 (stereo not drawn) [Compound 13549] | 5.77 | 5.59 | –
8 | Cc1ccc2ccc(-c3c[nH]c4c(C)cccc34)nc2c1 [Compound 13658] | 5.55 | 5.66 | –
9 | CC1(C)C(c2c[nH]c3ncccc23)=Nc2ccccc21 [Compound 13537] | 6.15 | 6.09 | –
10 | Cc1cccc2ccn(-c3ccc4ccc(F)cc4n3)c12 [Compound 13648] | – | – | eGFP IC50 (androgen receptor (AR); [1]): Inactive; PSA IC50 (PSA; [2]): Inactive
11 | Clc1cc(Cl)cc(/N=C/c2c[nH]c3ccccc23)c1 [Compound 13304] | 5.14 | 5.34 | –
12 | c1ccc2c(Cc3nn[nH]n3)c[nH]c2c1 [Compound 13700] | – | – | eGFP IC50 (androgen receptor (AR); [1]): Inactive; PSA IC50 (PSA; [2]): Inactive
13 | c1ccc2c(c1)C[C@@H](c1c[nH]c3ccccc13)N2 [Compound 13163-A] | 6.32 | 6.80 | –
14 | Cc1cc(F)cc2cc[nH]c12 [Compound 13722] | – | – | eGFP IC50 (androgen receptor (AR); [1]): Inactive; PSA IC50 (PSA; [2]): Inactive
15 | Cc1ccc2[nH]cc(C3Nc4ccccc4C34CCCCC4)c2c1 (stereo not drawn) [Compound 13548] | 5.49 | 5.37 | –
16 | Fc1cccc2nc(-c3c[nH]c4c(Cl)cccc34)ccc12 [Compound 13712] | – | – | eGFP IC50 (androgen receptor (AR); [1]): Inactive; PSA IC50 (PSA; [2]): Inactive
17 | Cc1ccc2ccc(Cl)nc2c1 [Compound 13727] | – | – | eGFP IC50 (androgen receptor (AR); [1]): Inactive; PSA IC50 (PSA; [2]): Inactive
18 | Fc1ccc(Cl)c2[nH]cc(-c3ccc4ccccc4n3)c12 [Compound 13639] | 6.26 | 6.26 | –
19 | CC1(C)c2ccccc2NC1C1CN(CCO)c2ccccc21 (stereo not drawn) [Compound 13508] | 5.32 | 5.57 | –

Row | Compound | pIC50 (androgen receptor (AR); [5]) | pIC50 (PSA; [6]) | other results
20 | Cc1cc(Cl)cc2c(-c3ccc4ccccc4n3)c[nH]c12 [Compound 13626] | 5.57 | 5.78 | –
21 | Fc1ccc(Cl)c2[nH]ccc12 [Compound 13726] | – | – | eGFP IC50 (androgen receptor (AR); [1]): Inactive; PSA IC50 (PSA; [2]): Inactive
22 | COc1ccc2[nH]c(-c3c[nH]c4ccccc34)cc2c1 [Compound 13509] | 5.59 | 5.51 | –
23 | Cc1cccc2c(-c3ccc4scnc4c3)c[nH]c12 [Compound 13758] | – | – | eGFP IC50 (androgen receptor (AR); [1]): Inactive; PSA IC50 (PSA; [2]): Inactive
24 | Cc1ccc(/N=N/c2c[nH]c3ccccc23)c(C)c1 [Compound 13225] | 6.15 | – | pIC50 (PSA; [7]): 6.05
25 | N#Cc1cc(F)cc2c(-c3ccc4ccc(F)cc4n3)c[nH]c12 [Compound 13730] | 6.83 | 6.70 | –
26 | Cc1cccc2c(-c3ccc4c(Cl)cccc4n3)c[nH]c12 [Compound 13605] | – | – | eGFP IC50 (androgen receptor (AR); [1]): Inactive; PSA IC50 (PSA; [2]): Inactive
27 | Cc1cccc2c(C3Nc4ccccc4C34CCCCC4)c[nH]c12 (stereo not drawn) [13 549] | – | – | pIC50 (androgen receptor (AR); [3]): 5.77; pIC50 (PSA; [4]): 5.59
28 | CCOC(=O)CN1c2ccccc2C(C)(C)C1c1c[nH]c2ccccc12 (stereo not drawn) [Compound 13532] | 5.55 | 5.51 | –
29 | Fc1cccc2ccc(-c3c[nH]c4ccccc34)nc12 [Compound 13688] | 7.16 | 7.17 | –
30 | Fc1ccc2nc(-c3c[nH]c4c(F)c(F)c(F)cc34)ccc2c1 [Compound 13749] | 6.54 | 6.66 | –
31 | Fc1ccc2ccc(-c3c[nH]c4c(F)c(F)c(F)cc34)nc2c1 [Compound 13772] | 6.70 | 6.76 | –
32 | O=[N+]([O-])c1cccc2c(-c3ccc(Br)cc3)c[nH]c12 [Compound 13738] | 7.08 | 7.21 | –
33 | Oc1cccc2c(C3Nc4ccccc4C34CCCCC4)c[nH]c12 (stereo not drawn) [13 552] | – | – | pIC50 (androgen receptor (AR); [3]): 5.96; pIC50 (PSA; [4]): 5.94
34 | Clc1cccc(/N=N/c2c[nH]c3ccccc23)c1 [Compound 13226] | 6.96 | 7.12 | –
35 | Fc1cc(Cl)c2[nH]cc(-c3ccc4c(Cl)cccc4n3)c2c1 [Compound 13669] | – | – | eGFP IC50 (androgen receptor (AR); [1]): Inactive; PSA IC50 (PSA; [2]): Inactive
36 | CC1(C)c2ccccc2NC1c1c[nH]c2cc(Cl)ccc12 (stereo not drawn) [Compound 13521] | 6.40 | 6.59 | –
37 | CN1c2ccccc2C[C@@H]1c1c[nH]c2ccccc12 [Compound 13164-B] | 5.89 | 5.80 | –
38 | COc1ccc(/N=C/c2c[nH]c3ccccc23)cc1 [Compound 13300] | 5.03 | 5.17 | –

Row | Compound | pIC50 (androgen receptor (AR); [5]) | pIC50 (PSA; [6]) | other results
39 | Cc1cccc2c(-c3cnc4ccccc4n3)c[nH]c12 [Compound 13585] | 6.96 | 7.41 | –
40 | CCc1cccc2c(-c3ccc4ccccc4n3)c[nH]c12 [13 567] | – | – | pIC50 (androgen receptor (AR); [3]): 6.70; pIC50 (PSA; [4]): 6.64
41 | c1ccc2cc(-c3c[nH]c4ccncc34)ccc2c1 [13 685] | – | – | IC50 (eGFP) (androgen receptor (AR); [8]): IC50 (eGFP) = Inactive; IC50 (PSA) (PSA; media after 3 days): IC50 (PSA) = Inactive
42 | Cc1cccc2c(-c3nc4ccccc4s3)c[nH]c12 [Compound 13760] | 7.00 | 7.28 | –
43 | Fc1cc(F)c2[nH]cc(-c3ccc4cccc(F)c4n3)c2c1 [Compound 13695] | 7.16 | 7.06 | –
44 | Cc1cccc2c(-c3ccc(-c4ccccc4)cc3)c[nH]c12 [Compound 13733] | 5.42 | 6.04 | –
45 | Fc1cc2c(-c3ccc4c(Cl)cccc4n3)c[nH]c2c(F)c1F [Compound 13750] | – | – | eGFP IC50 (androgen receptor (AR); [1]): Inactive; PSA IC50 (PSA; [2]): Inactive
46 | Cc1ccccc1CSc1c(C)[nH]c2ccccc12 [Compound 13412] | 6.05 | – | pIC50 (PSA; [7]): 5.91
47 | FC(F)(F)c1ccc(-c2c[nH]c3ccccc23)cc1 [13 743] | – | – | pIC50 (androgen receptor (AR); [3]): 6.42; pIC50 (PSA; [4]): 6.41
48 | FC(F)(F)c1ccccc1-c1c[nH]c2ccccc12 [13 745] | – | – | pIC50 (androgen receptor (AR); [3]): 6.00; pIC50 (PSA; [4]): 6.02
49 | Cc1cccc2c(-c3ccc4c(Br)cccc4n3)c[nH]c12 [13 678] | – | – | IC50 (eGFP) (androgen receptor (AR); [8]): IC50 (eGFP) = Inactive; IC50 (PSA) (PSA; media after 3 days): IC50 (PSA) = Inactive
50 | CNC(=O)c1cccc2nc(-c3c[nH]c4c(F)cc(F)cc34)ccc12 [Compound 13696] | 7.38 | 7.38 | –
51 | Fc1cccc2c(-c3ccc4cccc(Cl)c4n3)c[nH]c12 [Compound 13698] | 7.39 | 7.39 | –
52 | O=C(c1cc2cc(F)ccc2[nH]1)N(Cc1ccco1)Cc1ccco1 [Compound 9125] | 5.28 | 5.62 | –
53 | Cc1ccc(CN(C(=O)c2cc3ccccc3[nH]2)C(C)C)o1 [Compound 9128] | 5.49 | 5.46 | –
54 | Brc1ccc(-c2c[nH]c3ncccc23)cc1 [13 716] | – | – | pIC50 (androgen receptor (AR); [3]): 7.17; pIC50 (PSA; [4]): 7.24
55 | O=[N+]([O-])c1cccc2c(-c3ccc4ccccc4c3)c[nH]c12 [13 702] | – | – | pIC50 (androgen receptor (AR); [3]): 6.70; pIC50 (PSA; [4]): 6.85
56 | Fc1cc(Cl)cc2cc[nH]c12 [Compound 13720] | – | – | eGFP IC50 (androgen receptor (AR); [1]): Inactive; PSA IC50 (PSA; [2]): Inactive
57 | Oc1cc2ccccc2cc1-c1nc2ccccc2[nH]1 [13 687] | – | – | IC50 (eGFP) (androgen receptor (AR); [8]): IC50 (eGFP) = Inactive; IC50 (PSA) (PSA; media after 3 days): IC50 (PSA) = Inactive
